Results reported in patent US20220105150A1, “AMPHIPATHIC ALPHA-HELICAL ANTIMICROBIAL PEPTIDES TREAT INFECTIONS BY GRAM-NEGATIVE PATHOGENS” (priority 2019, published 2022).

Key:
Format in all cases: physicochemical
[1] = Peptide hydrophobicity by RP-HPLC retention time; conditions: RP-HPLC retention time at pH 2, 25° C.
Protocol: Column: Zorbax 300 SB-C8, 150×2.1 mm ID, 5-μm particle size, 300-Å pore size; conditions, linear AB gradient (0.25% acetonitrile/min) at a flow-rate of 0.3 ml/min, where eluent A was 20 mM aq. TFA and eluent B was 20 mM TFA in acetonitrile and the temperature was 25° C. The sequences of the ten peptides (with seven peptides containing Lys specificity determinants at positions 13 and 16 of the non-polar face (see FIG. 1) are shown in Table 1G. Peptide denotions in FIG. 4 have been abbreviated from those shown in Table 1G; for example, D87(Lys1-6 Arg-1) has been shortened to D87(6 Arg-1). For the peptides without specificity determinants, we have added A13/A16 to the peptide denotions. It is interesting that the Dab containing peptides are more hydrophilic than the Dap containing peptides even thought the Dab containing peptides have an additional carbon atom per Dab residue.
Retention behavior in reversed-phase chromatography is an excellent method to represent overall peptide hydrophobicity. […] All ten peptides used in this study could be readily separated by reversed-phase chromatography with the seven peptides with specificity determinants being much more hydrophilic than the three control peptides without specificity determinants (FIG. 4). […]

[2] = Helical structure by circular dichroism spectroscopy; conditions: for Aqueous pH 7 [θ]222: 100 mM KCl, 50 mM Na2HPO4/NaH2PO4, pH 7.0; for Aqueous pH 7 [θ]222 / 50% TFE [θ]222: 222 nm; for 50% TFE [θ]222: aqueous buffer containing 50% trifluoroethanol; for Δ[Θ]222 TFE-aqueous: difference 50% TFE minus aqueous; for % Helix Induced: increase in molar ellipticity in the presence of 50% TFE; for Aqueous pH 7 % Helix: relative to molar ellipticity of the peptide in 50% TFE
[3] = Peptide self-association by temperature profiling in RP-HPLC; conditions: for PA: self-association parameter relative to random coil control peptide RC; for Tp: temperature at which maximum retention time is observed, 5-77° C.
Protocol: Retention behavior from eight AMPs after normalization to their retention times at 5° C. over the temperature range 5° C. to 41° C. in 2° C. increments or 5° C. to 75° C. in 10° C. increments (methodology details provided in Examples). […] Peptide denotions in FIG. 5 have been abbreviated from those shown in Table 1G; for example, D87(Lys1-6 Arg-1) has been shortened to D87(6 Arg-1). RC is a random coil control peptide used for RP-HPLC temperature profiling. The peptide self-association parameter, PA, represents the maximum change in peptide retention time relative to the random coil peptide, RC (PA values shown in Table 6). […] T., et al. J. Med. Chem. 2019, 62:3354-66.
Hemoglobin release was determined spectrophotometrically at 570 nm.
Peptide self-association, the ability to dimerize/oligomerize in aqueous solution, is a very important parameter to optimize antimicrobial activity and toxicity as measured by hemolytic activity. We have proposed that the monomeric random-coil antimicrobial peptides in aqueous solution are best suited to pass through a polysaccharide capsule, the outer membrane lipopolysaccharide and the cell wall peptidoglycan layer of Gram-negative bacteria prior to penetration into the cytoplasmic membrane, where there is induction of α-helical structure and disruption of membrane structure, cell leakage and death of bacterial cells. In contrast, if the self-association ability of an AMP in aqueous medium is too strong, stable folded dimers/oligomers are formed through interaction of their non-polar faces which decreases the ability of the AMP to dissociate to monomer and the dimer/oligomer to effectively pass through the capsule and cell wall to reach the cytoplasmic membrane. The ability of an AMP to self-associate was determined by a RP-HPLC technique developed in our laboratory, referred to as temperature profiling over the temperature range 5° C. to 80° C. […] These eight AMPs are compared to a random-coil control peptide denoted RC. […] This linear decrease in retention behavior with increasing temperature represents the general effects of temperature due to greater solute diffusivity and enhanced mass transfer between the mobile and stationary phases. The difference in retention time between an amphipathic α-helical antimicrobial peptide and the RC control peptide is a measure of the ability of a peptide to associate. The association parameter, PA is large for AMPs without specificity determinants (Ala 13 and Ala 16) ranging from 12.5 to 28.0 min (Table 6) and is shown by a black arrow in FIG. 5. The association parameter, PA, is dramatically smaller for AMPs with specificity determinants (Lys 13 and Lys 16 in the center of the non-polar face) and range from 0 to 6 min (Table 6). […]

| SMILES | Hydrophobicity pH 2 tR [1] [min] | Aqueous pH 7 [θ]222 [2] | 50% TFE [θ]222 [2] | Δ[Θ]222 TFE-aqueous [2] | % Helix Induced [2] [%] | Aqueous pH 7 % Helix [2] [%] | PA [3] [min] | Tp [3] [°C] |
| --- | --- | --- | --- | --- | --- | --- | --- | --- |
| CC(=O)N[C@H](CCCCN)C(=O)N[C@H](CC(C)C)C(=O)N[C@H](CCN)C(=O)N[C@H](CO)C(=O)N[C@H](CC(C)C)C(=O)N[C@H](CC(C)C)C(=O)N[C@H](CCN)C(=O)N[C@@H](C(=O)N[C@H](CC(C)C)C(=O)N[C@H](CO)C(=O)N[C@H](CCN)C(=O)N[C@H](C)C(=O)N[C@H](C)C(=O)N[C@H](C)C(=O)N[C@H](C)C(=O)N[C@H](C)C(=O)N[C@H](CC(C)C)C(=O)N[C@H](CCN)C(=O)N[C@@H](C(=O)N[C@H](CC(C)C)C(=O)N[C@H](CC(C)C)C(=O)N[C@H](CCN)C(=O)N[C@H](C)C(=O)N[C@H](CC(C)C)C(=O)N[C@H](CO)C(=O)N[C@H](CCN)C(N)=O)[C@H](C)O)[C@H](C)O [D86(K13A/K16A)-(Lys^1-6Dab-1), Ac-KL(Dab)SLL(Dab)TLS(Dab)AAAAAL(Dab)TLL(Dab)ALS(Dab)-amide] | 158.3 | 2,308 mdeg cm^2/(dmol*res) | 18,731 mdeg cm^2/(dmol*res) | 16,423 mdeg cm^2/(dmol*res) | 88 | 12 | 12.5 | 31.0 |
| CC(=O)N[C@H](CCCCN)C(=O)N[C@H](CC(C)C)C(=O)N[C@H](CN)C(=O)N[C@H](CO)C(=O)N[C@H](CC(C)C)C(=O)N[C@H](CC(C)C)C(=O)N[C@H](CN)C(=O)N[C@@H](C(=O)N[C@H](CC(C)C)C(=O)N[C@H](CO)C(=O)N[C@H](CN)C(=O)N[C@H](C)C(=O)N[C@H](C)C(=O)N[C@H](C)C(=O)N[C@H](C)C(=O)N[C@H](C)C(=O)N[C@H](CC(C)C)C(=O)N[C@H](CN)C(=O)N[C@@H](C(=O)N[C@H](CC(C)C)C(=O)N[C@H](CC(C)C)C(=O)N[C@H](CN)C(=O)N[C@H](C)C(=O)N[C@H](CC(C)C)C(=O)N[C@H](CO)C(=O)N[C@H](CN)C(N)=O)[C@H](C)O)[C@H](C)O [D105(K13A/K16A)-(Lys^1-6Dap-1), Ac-KL(Dap)SLL(Dap)TLS(Dap)AAAAAL(Dap)TLL(Dap)ALS(Dap)-amide] | 172.3 | 9,577 mdeg cm^2/(dmol*res) | 18,038 mdeg cm^2/(dmol*res) | 8,461 mdeg cm^2/(dmol*res) | 47 | 53 | 18.0 | 39.0 |
